Laboratory results as given in patent US11440921B2, “Salts, crystal forms, and production methods thereof” (Sunovion Pharmaceuticals Inc., priority 2018, dated 2022).

Description: Approximately 200 mg of selected salts were weighed into clear glass HPLC vials. One milliliter of de-ionized water was added to each vial.

(S)-(4,5-dihydro-7H-thieno[2,3-c]pyran-7-yl)-N-methylmethanamine R-mandelate [(S)-TPMA R-mandelate]
solubility in de-ionized water: freely soluble | USP Descriptor (de-ionized water): Freely Soluble | Final solution PH (de-ionized water, approx. 200 mg salt in 1 mL): 6.2 | Solubility (mgA/mL) (de-ionized water, expressed in terms of free base): >107 mgA/mL
